Legend:
[1] = molecular target: T1, hM1 (human Muscarinic receptor subtype 1) (Homo sapiens, UniProt P11229); assay: Human M1 calcium mobilization FLIPR assay; assay type: cell-based; conditions: CHO cells expressing hM1, intracellular Ca2+ release
T1 construct: expressed in transfected cells; host or cells: CHO cells (Chinese hamster ovary cells, ATCC)
T1 sequence (P11229 1-460): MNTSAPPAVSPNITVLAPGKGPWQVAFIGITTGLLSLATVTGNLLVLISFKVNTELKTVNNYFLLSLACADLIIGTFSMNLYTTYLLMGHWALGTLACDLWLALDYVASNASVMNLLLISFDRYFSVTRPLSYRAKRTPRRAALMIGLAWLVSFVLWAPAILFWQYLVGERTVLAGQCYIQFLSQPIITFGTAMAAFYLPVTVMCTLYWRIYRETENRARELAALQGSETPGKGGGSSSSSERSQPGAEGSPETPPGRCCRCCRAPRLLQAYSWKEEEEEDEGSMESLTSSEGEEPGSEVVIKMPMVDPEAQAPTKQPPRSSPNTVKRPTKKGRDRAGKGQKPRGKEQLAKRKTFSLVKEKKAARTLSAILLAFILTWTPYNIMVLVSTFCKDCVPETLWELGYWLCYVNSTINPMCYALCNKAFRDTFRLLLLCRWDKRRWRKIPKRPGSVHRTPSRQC
Method: (§1) The compound activity in the present invention (EC50 or IC50) is measured using a 384 plate-based imaging assay that monitors drug induced intracellular Ca^2+ release in whole cells. Activation of hM1 (human Muscarinic receptor subtype 1, gene bank access NM_000738), rM1 (rat Muscarinic receptor subtype 1, gene bank access NM_080773), hM3 (human Muscarinic receptor subtype 3, gene bank access NM_000740NM_000740) and hM5 (human Muscarinic receptor subtype 5, gene bank access NM_0121258), receptors expressed in CHO cells (Chinese hamster ovary cells, ATCC) is quantified in a Molecular Devices FLIPR II™ instrument as an increase in fluorescent signal. Inhibition of hM3 and hM5 by compounds is determined by the decrease in fluorescent signal in response to 2 nM acetylcholine activation.
(§2) Prior to experiment, the cell culture medium is removed from the plates by inversion. […] Plates are incubated at 37° C. for 60 minutes prior to start the experiment. The incubation is terminated by washing the cells four times in assay buffer, leaving a residual 25 μl buffer per well. Cell plates are then transferred to the FLIPR, ready for compound additions.
(§3) The day of experiment, acetylcholine and compounds are diluted in assay buffer in three-fold concentration range (10 points serial dilution) for addition by FLIPR instrument. For all calcium assays, a baseline reading is taken for 10 seconds followed by the addition of 12.5 μl of compounds, resulting in a total well volume of 37.5 μl. Data is collected every second for 60 pictures and then every 6 seconds for 20 pictures prior to the addition of agonist. For hM3 and hM5, before agonist addition, a second baseline reading is taken for 10 seconds followed by the addition of 12.5 μl of agonist or buffer, producing a final volume of 50 μl. After agonist stimulation, the FLIPR continues to collect data every second for 60 pictures and then every 6 seconds for 20 pictures. The fluorescence emission is read using filter 1 (emission 510-570 nm) by the FLIPR on board CCD camera.
(§4) Calcium mobilization output data are calculated as the maximal relative fluorescence unit (RFU) minus the minimal value for both compound and agonist reading frame (except for hM1 and rM1 using only the maximal RFU). Data are analyzed using sigmoidal fits of a non-linear curve-fitting program (XLfit version 4.2.2 Excel add-in version 4.2.2 build 18 math 1Q version 2.1.2 build 18). All pEC50 and pIC50 values are reported as arithmetic means±standard error of mean of ‘n’ independent experiments.

cloned human M2 receptor = molecular target: T2, cloned human M2 receptor (Homo sapiens, UniProt P08172); assay: hM2 receptor GTPγS binding; assay type: biochemical; conditions: CHO membranes expressing hM2, [35S]GTPγS binding
T2 construct: purchased Perkin-Elmer RBHM2M; host or cells: CHO cell membranes
T2 sequence (P08172 1-466): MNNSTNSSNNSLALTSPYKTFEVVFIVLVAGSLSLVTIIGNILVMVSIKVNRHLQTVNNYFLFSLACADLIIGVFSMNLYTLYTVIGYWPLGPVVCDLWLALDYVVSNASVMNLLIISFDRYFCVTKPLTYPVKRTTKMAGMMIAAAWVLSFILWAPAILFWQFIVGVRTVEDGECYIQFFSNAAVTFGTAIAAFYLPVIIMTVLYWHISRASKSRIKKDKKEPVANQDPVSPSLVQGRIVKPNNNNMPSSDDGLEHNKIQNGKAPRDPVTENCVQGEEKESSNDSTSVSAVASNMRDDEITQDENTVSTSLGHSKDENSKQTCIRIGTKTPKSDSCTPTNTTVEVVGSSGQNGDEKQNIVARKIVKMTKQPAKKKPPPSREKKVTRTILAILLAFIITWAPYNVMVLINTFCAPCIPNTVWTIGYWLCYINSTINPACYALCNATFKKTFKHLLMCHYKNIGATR
Method: Membranes produced from Chinese hamster ovary cells (CHO) expressing the cloned human M2 receptor (human Muscarinic receptor subtype 2, gene bank access NM_000739), are obtained from Perkin-Elmer (RBHM2M). The membranes are thawed at 37° C., passed 3 times through a 23-gauge blunt-end needle, diluted in the GTPγS binding buffer (50 mM Hepes, 20 mM NaOH, 100 mM NaCl, 1 mM EDTA, 5 mM MgCl2, pH 7.4, 100 μM DTT). The EC50, IC50 and Emax of the compounds of the invention are evaluated from 10-point dose-response curves (three fold concentration range) done in 60 μl in 384-well non-specific binding surface plate (Corning). Ten microliters from the dose-response curves plate (5× concentration) are transferred to another 384 well plate containing 25 μl of the following: 5 μg of hM2 membranes, 500 μg of Flashblue beads (Perkin-Elmer) and GDP 25 μM. An additional 15 μl containing 3.3× (60,000 dpm) of GTPγ^35S (0.4 nM final) are added to the wells resulting in a total well volume of 50 μl. Basal and maximal stimulated [^35S]GTPγS binding are determined in absence and presence of 30 μM final of acetylcholine agonist. The membranes/beads mix are pre-incubated for 15 minutes at room temperature with 25 μM GDP prior to distribution in plates (12.5 μM final). The reversal of acetylcholine-induced stimulation (2 μM final) of [^35S]GTPγS binding is used to assay the antagonist properties (IC50) of the compounds. The plates are incubated for 60 minutes at room temperature then centrifuged at 400 rpm for 5 minutes. The radioactivity (cpm) is counted in a Trilux (Perkin-Elmer).
Values of EC50, IC50 and Emax are obtained using sigmoidal fits of a non-linear curve-fitting program (XLfit version 4.2.2 Excel add-in version 4.2.2 build 18 math 1Q version 2.1.2 build 18) of percent stimulated [^35S]GTPγS binding vs. log(molar ligand). All pEC50 and pIC50 values are reported as arithmetic means±standard error of mean of ‘n’ independent experiments.

[2] = molecular target: T3, hM3 (human Muscarinic receptor subtype 3) (Homo sapiens, UniProt P20309); assay: Human M3 calcium mobilization FLIPR assay; assay type: cell-based; conditions: CHO cells expressing hM3, intracellular Ca2+ release
T3 construct: expressed in transfected cells; host or cells: CHO cells (Chinese hamster ovary cells, ATCC)
T3 sequence (P20309 whole entry): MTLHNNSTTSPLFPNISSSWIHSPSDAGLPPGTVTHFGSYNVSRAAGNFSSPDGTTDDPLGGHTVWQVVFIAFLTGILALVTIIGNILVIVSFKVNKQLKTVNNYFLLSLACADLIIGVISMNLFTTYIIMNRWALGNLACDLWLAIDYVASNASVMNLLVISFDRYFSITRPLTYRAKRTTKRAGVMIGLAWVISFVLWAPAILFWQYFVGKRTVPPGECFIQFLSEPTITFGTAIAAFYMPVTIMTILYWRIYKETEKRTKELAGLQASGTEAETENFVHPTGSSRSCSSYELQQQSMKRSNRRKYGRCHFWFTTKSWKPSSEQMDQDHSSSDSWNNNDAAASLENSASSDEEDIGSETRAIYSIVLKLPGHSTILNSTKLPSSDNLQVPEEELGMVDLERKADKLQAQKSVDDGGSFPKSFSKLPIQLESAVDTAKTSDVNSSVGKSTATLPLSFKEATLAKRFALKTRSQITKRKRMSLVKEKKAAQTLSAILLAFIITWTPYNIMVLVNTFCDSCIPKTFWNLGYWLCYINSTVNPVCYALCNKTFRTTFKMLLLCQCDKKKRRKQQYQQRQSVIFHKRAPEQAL
Method: as §1, §2, §3, §4

Row | Compound | EC50 [1] [nM] | EC50 (cloned human M2 receptor) [nM] | EC50 [2] [nM]
1 | CC1(N2CCC(N3C(=O)N[C@H]4CCCC[C@@H]43)CC2)CCN(C(=O)C2CC2)CC1 [Example 03, (3aS,7aS)-1-[1-[1-(cyclopropanecarbonyl)-4-methyl-4-piperidyl]-4-piperidyl]-3a,4,5,6,7,7a-hexahydro-3H-benzoimidazol-2-one] | < 7.1 | > 1600 | > 40000
2 | CC1(N2CCC(N3C(=O)N[C@@H]4CCCC[C@H]43)CC2)CCN(C(=O)C2CC2)CC1 [Example 06, (3aR,7aR)-1-[1-[1-(cyclopropanecarbonyl)-4-methyl-4-piperidyl]-4-piperidyl]-3a,4,5,6,7,7a-hexahydro-3H-benzoimidazol-2-one] | 51 | > 30000 | > 49000
3 | CCOC(=O)N1CCC(C)(N2CCC(N3C(=O)N[C@H]4CCCC[C@@H]43)CC2)C1 (single isomer, unassigned) [Example 21] | 18.4 | 4870 | > 22100
4 | CCC(=O)N1CCC(C)(N2CCC(N3C(=O)N[C@H]4CCCC[C@@H]43)CC2)CC1 [Example 18, (3aS,7aS)-3-[1-(4-methyl-1-propanoyl-4-piperidyl)-4-piperidyl]-3a,4,5,6,7,7a-hexahydro-1H-benzimidazol-2-one] | 66.6 | 2340 | > 40000
5 | CCOC(=O)N1CCC(C)(N2CCC(N3C(=O)N[C@H]4CCCC[C@@H]43)CC2)CC1 [Example 01, Ethyl 4-[4-[(3aS,7aS)-2-oxo-3a,4,5,6,7,7a-hexahydro-3H-benzoimidazol-1-yl]-1-piperidyl]-4-methyl-piperidine-1-carboxylate] | 1.9 | 45 | 1400
6 | CC#CCOC(=O)N1CCC(C)(N2CCC(N3C(=O)N[C@H]4CCCC[C@@H]43)CC2)CC1 [Example 16, But-2-ynyl 4-[4-[(3aS,7aS)-2-oxo-3a,4,5,6,7,7a-hexahydro-3H-benzimidazol-1-yl]-1-piperidyl]-4-methyl-piperidine-1-carboxylate] | 3.6 | 121 | > 40000
7 | CC(C)OC(=O)N1CCC(C)(N2CCC(N3C(=O)N[C@@H]4CCCC[C@H]43)CC2)CC1 [Example 05, Propan-2-yl 4-[4-[(3aR,7aR)-2-oxo-3a,4,5,6,7,7a-hexahydro-3H-benzoimidazol-1-yl]-1-piperidyl]-4-methyl-piperidine-1-carboxylate] | 25 | > 14000 | > 49000

Reference: US8119661B2, “Piperidine derivatives and their use as muscarinic receptor modulators” (AstraZeneca AB, priority 2007, dated 2012)
